# Test results published in patent publication US20240398777A1, “METHOD OF TREATING SYMPTOMS OF PRADER-WILLI SYNDROME” (HARMONY BIOSCIENCES, LLC, priority 2023, published 2024).
# Assays:
# Format in all cases: in vivo, human
# [1] = test system: excessive daytime sleepiness (EDS) in subjects with PWS; assay: Phase 2 randomized placebo-controlled study: ESS-CHAD (parent/caregiver version)
# Description: (§1) A study was carried out to evaluate the efficacy and safety of pitolisant for the treatment of EDS in subjects with PWS. This was a phase 2, randomized, placebo-controlled, proof-of-concept study. Children (aged 6 to <12 years), adolescents (aged 12 to <18 years), and adults (aged 18-65 years) with a confirmed diagnosis of PWS were randomly assigned to receive low-dose pitolisant (8.9 mg in children, 13.35 mg in adolescents, and 17.8 mg in adults) or high dose pitolisant (17.8 mg in children, 26.7 mg in adolescents, and 35.6 mg in adults), or placebo (see FIG. 1). All doses are expressed in terms of pitolisant freebase.
# (§2) The 11-week double-blind treatment period consisted of a 3-week titration phase and an 8-week stable-dose phase.
# The primary efficacy endpoint was the change from baseline to Week 11 in total score for the parent/caregiver version of the Epworth Sleepiness Scale for Children and Adolescents (ESS-CHAD), which is a validated measurement for sleep propensity. (See Janssen K C, et al. Sleep Med. 2017; 33:30-35; see also Patel V P, et al. J. Clin. Sleep Med. 2022; 18 (2): 485-496). A separate analysis was treatment response defined as ESS-CHAD score reduction of ≥3 points from baseline or Week 11 score of ≤10.
# [2] = test system: EDS severity in subjects with PWS; assay: Phase 2 study: Caregiver Global Impression of Severity (CaGI-S) for EDS; details: Week 11
# Description: as §1, §2
# (§3) Secondary/exploratory endpoints included change from baseline in Caregiver Global Impression of Severity (CaGI-S) for EDS, behavioral disturbance (Aberrant Behavior Checklist-2 [ABC-2]), and hyperphagia (Hyperphagia Questionnaire for Clinical Trials [HQ-CT] in conjunction with the Food Safe Zone Questionnaire [FSZQ]). The primary time frame of interest was from baseline to Week 11.
# [3] = test system: behavioral problems in subjects with PWS; assay: Phase 2 study: Aberrant Behavior Checklist-2 (ABC-2)
# Description: as §1, §2, §3
# The ABC-2 is a widely used and validated questionnaire that can assess changes in behavioral problems, and is particularly suitable for assessing behavioral changes in subjects with intellectual and developmental disabilities. The ABC-2 questions are subdivided into five domains (irritability, social withdrawal, hyperactivity/noncompliance, inappropriate speech, and stereotypic behavior). Generally, a reduction of 2 or more points in a domain of the ABC-2 is considered clinically meaningful. ABC-2 was used in this trial to determine if pitolisant improved or reduced behavioral problems experienced by subjects living with PWS.
# [4] = test system: hyperphagia in subjects with PWS; assay: Phase 2 study: Hyperphagia Questionnaire for Clinical Trials (HQ-CT); details: Week 11; children (6 to <12 years) and adults (18 to 65 years)
# Description: as §1, §2, §3
# patients with PWS = assay: Phase 2 study: treatment-emergent adverse events; details: for Treatment-related TEAEs: possibly, probably, or definitely related to study drug
# Description: as §1, §2
# [5] = adolescents (12 to <18 years), higher-dose, n = 6
# [6] = adolescents (12 to <18 years), lower-dose, n = 4
# [7] = adults (18 to 65 years), higher-dose, n = 5
# [8] = adults (18 to 65 years), lower-dose, n = 3
# [9] = all patient groups, high dose pitolisant, n = 22
# [10] = all patient groups, low dose pitolisant, n = 18
# [11] = pitolisant-treated patients (doses pooled)
smiles,measurement,setting,value
Clc1ccc(CCCOCCCN2CCCCC2)cc1 [pitolisant],ESS-CHAD (Parent/Caregiver Version) mean change from baseline at Week 11,"[1]; 6 to <12 years, high-dose pitolisant (17.8 mg), n = 11",−5.5 points
same,ESS-CHAD (Parent/Caregiver Version) mean change from baseline at Week 11,"[1]; 6 to <12 years, low-dose pitolisant (8.9 mg), n = 12",−3.7 points
same,ESS-CHAD (Parent/Caregiver Version) mean change from baseline at Week 11,"[1]; 12 to <18 years, high-dose pitolisant (26.7 mg), n = 6",−4.2 points
same,ESS-CHAD (Parent/Caregiver Version) mean change from baseline at Week 11,"[1]; 12 to <18 years, low-dose pitolisant (13.35 mg), n = 4",−4.5 points
same,ESS-CHAD (Parent/Caregiver Version) mean change from baseline at Week 11,"[1]; 18 to 65 years, high-dose pitolisant (35.6 mg), n = 5",−4.4 points
same,ESS-CHAD (Parent/Caregiver Version) mean change from baseline at Week 11,"[1]; 18 to 65 years, low-dose pitolisant (17.8 mg), n = 3",−5.0 points
same,mean improvement from baseline in ESS-CHAD score versus placebo,"[1]; overall patient population, end of treatment, both dose groups",greater for both pitolisant dose groups compared with the placebo group
same,ESS-CHAD response rate (score reduction of ≥3 points from baseline or score of ≤10 at Week 11) versus placebo,"[1]; study completers, Week 11, driven primarily by high-dose group",higher for pitolisant versus placebo
same,reduction in CaGI-S score versus placebo,[2]; children (6 to <12 years) and adults,greater for pitolisant compared with placebo
same,CaGI-S mean (SD) change,[2]; higher-dose pitolisant group,−1.1 (1.1)
same,CaGI-S mean (SD) change,[2]; lower-dose pitolisant group,−1.0 (1.2)
same,mean reduction on all ABC-2 domains versus placebo,"[3]; Week 11, children (6 to <12 years), higher-dose pitolisant",greater for higher-dose pitolisant compared with placebo
same,ABC-2 Hyperactivity/noncompliance mean change from baseline to Week 11,[3]; [5],−3.8
same,ABC-2 Inappropriate speech mean change from baseline to Week 11,[3]; [5],−1.7
same,ABC-2 Irritability mean change from baseline to Week 11,[3]; [5],−5.0
same,ABC-2 Social withdrawal mean change from baseline to Week 11,[3]; [5],−3.7
same,ABC-2 Stereotypic behavior mean change from baseline to Week 11,[3]; [5],−0.5
same,ABC-2 Hyperactivity/noncompliance mean change from baseline to Week 11,[3]; [6],0.0
same,ABC-2 Inappropriate speech mean change from baseline to Week 11,[3]; [6],−0.8
same,ABC-2 Irritability mean change from baseline to Week 11,[3]; [6],−4.8
same,ABC-2 Social withdrawal mean change from baseline to Week 11,[3]; [6],−3.3
same,ABC-2 Stereotypic behavior mean change from baseline to Week 11,[3]; [6],0.3
same,ABC-2 Hyperactivity/noncompliance mean change from baseline to Week 11,[3]; [7],−5.4
same,ABC-2 Inappropriate speech mean change from baseline to Week 11,[3]; [7],−2.2
same,ABC-2 Irritability mean change from baseline to Week 11,[3]; [7],−2.8
same,ABC-2 Social withdrawal mean change from baseline to Week 11,[3]; [7],−2.4
same,ABC-2 Stereotypic behavior mean change from baseline to Week 11,[3]; [7],−2.6
same,ABC-2 Hyperactivity/noncompliance mean change from baseline to Week 11,[3]; [8],1.0
same,ABC-2 Inappropriate speech mean change from baseline to Week 11,[3]; [8],0.7
same,ABC-2 Irritability mean change from baseline to Week 11,[3]; [8],−3.0
same,ABC-2 Social withdrawal mean change from baseline to Week 11,[3]; [8],−1.0
same,ABC-2 Stereotypic behavior mean change from baseline to Week 11,[3]; [8],−0.3
same,ABC-2 Hyperactivity/noncompliance mean change from baseline to Week 11,[3]; [9],−4.6
same,ABC-2 Inappropriate speech mean change from baseline to Week 11,[3]; [9],−2.0
same,ABC-2 Irritability mean change from baseline to Week 11,[3]; [9],−4.8
same,ABC-2 Social withdrawal mean change from baseline to Week 11,[3]; [9],−4.0
same,ABC-2 Stereotypic behavior mean change from baseline to Week 11,[3]; [9],−1.2
same,ABC-2 Hyperactivity/noncompliance mean change from baseline to Week 11,[3]; [10],−0.4
same,ABC-2 Inappropriate speech mean change from baseline to Week 11,[3]; [10],−0.3
same,ABC-2 Irritability mean change from baseline to Week 11,[3]; [10],−3.4
same,ABC-2 Social withdrawal mean change from baseline to Week 11,[3]; [10],−1.9
same,ABC-2 Stereotypic behavior mean change from baseline to Week 11,[3]; [10],−0.1
same,reductions in three ABC-2 domains including irritability and hyperactivity/noncompliance,[3]; high dose group,more than 4 points
same,reduction in HQ-CT score versus placebo,[4],greater for pitolisant compared with placebo
same,Anxiety,"patients with PWS; high-dose pitolisant, n = 22",1 (4.5) n (%)
same,Any TEAE,"patients with PWS; high-dose pitolisant, n = 22",11 (50.0) n (%)
same,Irritability,"patients with PWS; high-dose pitolisant, n = 22",2 (9.1) n (%)
same,Most common TEAEs,"patients with PWS; high-dose pitolisant, n = 22",1 (4.5) n (%)
same,Serious TEAEs,"patients with PWS; high-dose pitolisant, n = 22",0 n (%)
same,Severe TEAEs,"patients with PWS; high-dose pitolisant, n = 22",0 n (%)
same,Treatment-related TEAEs,"patients with PWS; high-dose pitolisant, n = 22",4 (18.2) n (%)
same,Anxiety,"patients with PWS; low-dose pitolisant, n = 20",4 (20.0) n (%)
same,Any TEAE,"patients with PWS; low-dose pitolisant, n = 20",13 (65.0) n (%)
same,Irritability,"patients with PWS; low-dose pitolisant, n = 20",3 (15.0) n (%)
same,Most common TEAEs,"patients with PWS; low-dose pitolisant, n = 20",4 (20.0) n (%)
same,Serious TEAEs,"patients with PWS; low-dose pitolisant, n = 20",0 n (%)
same,Severe TEAEs,"patients with PWS; low-dose pitolisant, n = 20",0 n (%)
same,Treatment-related TEAEs,"patients with PWS; low-dose pitolisant, n = 20",7 (35.0) n (%)
same,safety and tolerability versus known safety profile,patients with PWS; patients with PWS,no new safety signals were observed
same,"adverse event anxiety, incidence",patients with PWS; [11],13.0%
same,"adverse event irritability, incidence",patients with PWS; [11],17.4%
